Laboratory results from the supplement of paper PMC10307832.

What was measured:
Test in all cases: relative viability (nuclei count vs DMSO), 5 days (fraction); higher = more cells survive
BEN = system: BEN
How it was run: (§1)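 Lung cancer cell lines in 1536-well plates were dosed by pin tool the day after seeding, either with one drug alone or with a fixed anchor-drug dose plus five library-drug doses (not always all listed) in √10 steps. After 5 days, cells were fixed and their nuclei stained in one step (final 0.05% Triton X-100, 1% formaldehyde, 1 ug/ml Hoechst), then counted on 4× images. Relative viability is the nuclei count in treated wells divided by that in vehicle wells. Values are medians of duplicate plates.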

EKVX = system: EKVX
How it was run: as §1

NCI-H727 = system: NCI-H727
How it was run: as §1

SW 900 = system: SW 900
How it was run: as §1

HCC-366 = system: HCC-366
How it was run: as §1

NCI-H1650 = system: NCI-H1650
How it was run: as §1

PC-14 = system: PC-14
How it was run: as §1

LOU-NH91 = system: LOU-NH91
How it was run: as §1

NCI-H3122 = system: NCI-H3122
How it was run: as §1

NCI-H661 = system: NCI-H661
How it was run: as §1

NCI-H441 = system: NCI-H441
How it was run: as §1

NCI-H2009 = system: NCI-H2009
How it was run: as §1

NCI-H460 = system: NCI-H460
How it was run: as §1

201T = system: 201T
How it was run: as §1

NCI-H1666 = system: NCI-H1666
How it was run: as §1

CAL-12T = system: CAL-12T
How it was run: as §1

COR-L 105 = system: COR-L 105
How it was run: as §1

LK-2 = system: LK-2
How it was run: as §1

HARA = system: HARA
How it was run: as §1

NCI-H1437 = system: NCI-H1437
How it was run: as §1

NCI-H2170 = system: NCI-H2170
How it was run: as §1

Nc1ccn([C@@H]2O[C@H](CO)[C@@H](O)[C@@H]2O)c(=O)n1 [Cytarabine] + CC(=O)Nc1cccc(-n2c(=O)n(C3CC3)c(=O)c3c(Nc4ccc(I)cc4F)n(C)c(=O)c(C)c32)c1 [Trametinib] (partner 0.02 µM)
relative viability (BEN; first compound 0.005 µM): 1.08
relative viability (BEN; first compound 0.01581 µM): 0.897
relative viability (BEN; first compound 0.05 µM): 0.781
relative viability (BEN; first compound 0.1581 µM): 0.553
relative viability (BEN; first compound 0.5 µM): 0.372
relative viability (EKVX; first compound 0.005 µM): 0.584
relative viability (EKVX; first compound 0.01581 µM): 0.285
relative viability (EKVX; first compound 0.05 µM): 0.295
relative viability (EKVX; first compound 0.5 µM): 0.167
relative viability (NCI-H727; first compound 0.005 µM): 0.348
relative viability (NCI-H727; first compound 0.01581 µM): 0.374
relative viability (NCI-H727; first compound 0.05 µM): 0.354
relative viability (NCI-H727; first compound 0.1581 µM): 0.336
relative viability (NCI-H727; first compound 0.5 µM): 0.329
relative viability (SW 900; first compound 0.005 µM): 0.83
relative viability (SW 900; first compound 0.01581 µM): 0.653
relative viability (SW 900; first compound 0.05 µM): 0.662
relative viability (SW 900; first compound 0.1581 µM): 0.23
relative viability (SW 900; first compound 0.5 µM): 0.243
relative viability (HCC-366; first compound 0.005 µM): 0.276
relative viability (HCC-366; first compound 0.01581 µM): 0.33
relative viability (HCC-366; first compound 0.05 µM): 0.178
relative viability (HCC-366; first compound 0.1581 µM): 0.0948
relative viability (HCC-366; first compound 0.5 µM): 0.086
relative viability (NCI-H1650; first compound 0.005 µM): 0.446
relative viability (NCI-H1650; first compound 0.01581 µM): 0.419
relative viability (NCI-H1650; first compound 0.05 µM): 0.452
relative viability (NCI-H1650; first compound 0.1581 µM): 0.24
relative viability (NCI-H1650; first compound 0.5 µM): 0.158
relative viability (PC-14; first compound 0.005 µM): 0.712
relative viability (PC-14; first compound 0.01581 µM): 0.669
relative viability (PC-14; first compound 0.05 µM): 0.515
relative viability (PC-14; first compound 0.1581 µM): 0.0885
relative viability (PC-14; first compound 0.5 µM): 0.079
relative viability (LOU-NH91; first compound 0.005 µM): 0.758
relative viability (LOU-NH91; first compound 0.01581 µM): 0.807
relative viability (LOU-NH91; first compound 0.05 µM): 0.699
relative viability (LOU-NH91; first compound 0.1581 µM): 0.657
relative viability (LOU-NH91; first compound 0.5 µM): 0.644
relative viability (NCI-H3122; first compound 0.005 µM): 0.221
relative viability (NCI-H3122; first compound 0.01581 µM): 0.252
relative viability (NCI-H3122; first compound 0.05 µM): 0.187
relative viability (NCI-H3122; first compound 0.1581 µM): 0.177
relative viability (NCI-H3122; first compound 0.5 µM): 0.139
relative viability (NCI-H661; first compound 0.005 µM): 0.574
relative viability (NCI-H661; first compound 0.01581 µM): 0.571
relative viability (NCI-H661; first compound 0.05 µM): 0.582
relative viability (NCI-H661; first compound 0.1581 µM): 0.435
relative viability (NCI-H661; first compound 0.5 µM): 0.385
relative viability (NCI-H441; first compound 0.005 µM): 0.361
relative viability (NCI-H441; first compound 0.01581 µM): 0.421
relative viability (NCI-H441; first compound 0.05 µM): 0.451
relative viability (NCI-H441; first compound 0.1581 µM): 0.242
relative viability (NCI-H441; first compound 0.5 µM): 0.199
relative viability (NCI-H2009; first compound 0.005 µM): 0.271
relative viability (NCI-H2009; first compound 0.01581 µM): 0.25
relative viability (NCI-H2009; first compound 0.05 µM): 0.249
relative viability (NCI-H2009; first compound 0.1581 µM): 0.238
relative viability (NCI-H2009; first compound 0.5 µM): 0.137
relative viability (NCI-H460; first compound 0.005 µM): 0.13
relative viability (NCI-H460; first compound 0.01581 µM): 0.111
relative viability (NCI-H460; first compound 0.05 µM): 0.103
relative viability (NCI-H460; first compound 0.1581 µM): 0.0544
relative viability (NCI-H460; first compound 0.5 µM): 0.0417
relative viability (201T; first compound 0.005 µM): 0.728
relative viability (201T; first compound 0.01581 µM): 0.724
relative viability (201T; first compound 0.05 µM): 0.76
relative viability (201T; first compound 0.1581 µM): 0.709
relative viability (201T; first compound 0.5 µM): 0.694
relative viability (NCI-H1666; first compound 0.005 µM): 0.806
relative viability (NCI-H1666; first compound 0.01581 µM): 0.728
relative viability (NCI-H1666; first compound 0.05 µM): 0.76
relative viability (NCI-H1666; first compound 0.1581 µM): 0.646
relative viability (NCI-H1666; first compound 0.5 µM): 0.592
relative viability (CAL-12T; first compound 0.005 µM): 0.411
relative viability (CAL-12T; first compound 0.01581 µM): 0.318
relative viability (CAL-12T; first compound 0.05 µM): 0.326
relative viability (CAL-12T; first compound 0.1581 µM): 0.22
relative viability (CAL-12T; first compound 0.5 µM): 0.22
relative viability (COR-L 105; first compound 0.005 µM): 0.435
relative viability (COR-L 105; first compound 0.01581 µM): 0.473
relative viability (COR-L 105; first compound 0.05 µM): 0.438
relative viability (COR-L 105; first compound 0.1581 µM): 0.315
relative viability (COR-L 105; first compound 0.5 µM): 0.302
relative viability (LK-2; first compound 0.005 µM): 1.01
relative viability (LK-2; first compound 0.01581 µM): 0.701
relative viability (LK-2; first compound 0.05 µM): 0.479
relative viability (LK-2; first compound 0.1581 µM): 0.226
relative viability (LK-2; first compound 0.5 µM): 0.268
relative viability (HARA; first compound 0.005 µM): 1.03
relative viability (HARA; first compound 0.01581 µM): 0.354
relative viability (HARA; first compound 0.05 µM): 0.335
relative viability (HARA; first compound 0.1581 µM): 0.204
relative viability (HARA; first compound 0.5 µM): 0.231
relative viability (NCI-H1437; first compound 0.005 µM): 0.503
relative viability (NCI-H1437; first compound 0.01581 µM): 0.406
relative viability (NCI-H1437; first compound 0.05 µM): 0.416
relative viability (NCI-H1437; first compound 0.1581 µM): 0.238
relative viability (NCI-H1437; first compound 0.5 µM): 0.178
relative viability (NCI-H2170; first compound 0.005 µM): 0.741
relative viability (NCI-H2170; first compound 0.01581 µM): 0.665
relative viability (NCI-H2170; first compound 0.05 µM): 0.581
relative viability (NCI-H2170; first compound 0.1581 µM): 0.374
relative viability (NCI-H2170; first compound 0.5 µM): 0.299
